{
  "source": "patent US9290516B2",
  "about": "“Benzobis(thiadiazole) derivative and organic electronics device comprising same” (Ube Industries, Ltd., priority 2012, dated 2016)",
  "assay_type_in_all_cases": "physicochemical",
  "key": {"[1]": {"assay": "Solubility Experiment 3 (chlorobenzene, visual observation)", "settings": "organic solvent or mixture, thermodynamic from solid, 1 mg in 1 mL chlorobenzene", "method": "1 mg of each compound shown in Table 1 [BBT-(1)-BBT-(14)] was added to 1 mL of a solvent (chlorobenzene) and the mixture was heated to 100° C. or 140° C., and the solubility was evaluated by visual observation."}, "[2]": {"assay": "Solubility Experiment 1 (1,2-dichlorobenzene)", "settings": "5 mg in 1.6 g 1,2-dichlorobenzene, heated to 150° C.", "method": "Into a 20-ml glass vessel equipped with a stirring apparatus were placed 5 mg of BBT-(1), and 1.6 g of 1,2-dichlorobenzene.\n(§1) On the other hand, using BBT-(11): (FPTBBT) synthesized in Reference Example 1, instead of BBT-(1), the preparation of a solution of BBT-(11) in 1,2-dichlorobenzene was attempted in accordance with [Solubility Experiment 1]. […] The suspension was filtered through a 0.2-μm filter, and then dropped onto a silicon wafer as described above. And then, without any treatment, the solvent component was volatilized, but the formation of a thin film of BBT-(11) was not confirmed. Meanwhile, using BBT-(11), instead of BBT-(1), the preparation of a solution of BBT-(11) in mesitylene was attempted in accordance with [Solubility Experiment 2]. […] The suspension was filtered through a 0.2-μm filter, and then dropped onto a silicon wafer as described above. And then, without any treatment, the solvent component was volatilized, but the formation of a thin film of BBT-(11) was not confirmed."}, "[3]": {"assay": "Solubility Experiment 2 (mesitylene)", "settings": "5 mg in 1.6 g mesitylene, heated to 100° C.", "method": "Into a 20-ml glass vessel equipped with a stirring apparatus were placed 5 mg of BBT-(1), and 1.6 g of mesitylene.\nas §1"}, "[4]": {"settings": "heated to 100° C., read-out: Solubility chlorobenzene (° C.) 100"}, "[5]": {"settings": "heated to 140° C., read-out: Solubility chlorobenzene (° C.) 140"}},
  "note": "Like-named read-outs stand apart in the source and are kept apart here.",
  "data": [
    {"smiles": "Cc1ccc(-c2ccc(-c3c4c(c(-c5ccc(-c6ccc(C)cc6)s5)c5nsnc35)N=S=N4)s2)cc1", "note": "[BBT-(12), reference compound]", "values": [
      {"measurement": "solubility", "setting": "[1]; [4]", "result": "> 1000", "unit": "µg/mL"},
      {"measurement": "solubility", "setting": "[1]; [5]", "result": "> 1000", "unit": "µg/mL"}
    ]},
    {"smiles": "FC(F)(F)Oc1ccccc1-c1ccc(-c2c3c(c(-c4ccc(-c5ccccc5OC(F)(F)F)s4)c4nsnc24)N=S=N3)s1", "note": "[BBT-(3)]", "values": [
      {"measurement": "solubility", "setting": "[1]; [4]", "result": "> 1000", "unit": "µg/mL"},
      {"measurement": "solubility", "setting": "[1]; [5]", "result": "> 1000", "unit": "µg/mL"}
    ]},
    {"smiles": "CCCCCCCCCc1ccc(-c2ccc(-c3c4c(c(-c5ccc(-c6ccc(CCCCCCCCC)cc6)s5)c5nsnc35)N=S=N4)s2)cc1", "note": "[BBT-(14), reference compound]", "values": [
      {"measurement": "solubility", "setting": "[1]; [4]", "result": "> 1000", "unit": "µg/mL"},
      {"measurement": "solubility", "setting": "[1]; [5]", "result": "> 1000", "unit": "µg/mL"}
    ]},
    {"smiles": "CC(C)CC(F)c1ccc(-c2ccc(-c3c4c(c(-c5ccc(-c6ccc(C(F)CC(C)C)cc6)s5)c5nsnc35)N=S=N4)s2)cc1", "note": "(stereo not drawn) [BBT-(9)]", "values": [
      {"measurement": "solubility", "setting": "[1]; [4]", "result": "< 1000", "unit": "µg/mL"},
      {"measurement": "solubility", "setting": "[1]; [5]", "result": "> 1000", "unit": "µg/mL"}
    ]},
    {"smiles": "CC(F)(F)c1ccc(-c2ccc(-c3c4c(c(-c5ccc(-c6ccc(C(C)(F)F)cc6)s5)c5nsnc35)N=S=N4)s2)cc1", "note": "[BBT-(4)]", "values": [
      {"measurement": "solubility", "setting": "[1]; [4]", "result": "< 1000", "unit": "µg/mL"},
      {"measurement": "solubility", "setting": "[1]; [5]", "result": "> 1000", "unit": "µg/mL"}
    ]},
    {"smiles": "CCCCCCCCCC(F)(F)Oc1ccc(-c2ccc(-c3c4c(c(-c5ccc(-c6ccc(OC(F)(F)CCCCCCCCC)cc6)s5)c5nsnc35)N=S=N4)s2)cc1", "note": "[BBT-(7)]", "values": [
      {"measurement": "solubility", "setting": "[1]; [4]", "result": "> 1000", "unit": "µg/mL"},
      {"measurement": "solubility", "setting": "[1]; [5]", "result": "> 1000", "unit": "µg/mL"}
    ]},
    {"smiles": "CCCCCCCCCCOC(F)(F)c1ccc(-c2ccc(-c3c4c(c(-c5ccc(-c6ccc(C(F)(F)OCCCCCCCCCC)cc6)s5)c5nsnc35)N=S=N4)s2)cc1", "note": "[BBT-(10)]", "values": [
      {"measurement": "solubility", "setting": "[1]; [4]", "result": "> 1000", "unit": "µg/mL"},
      {"measurement": "solubility", "setting": "[1]; [5]", "result": "> 1000", "unit": "µg/mL"}
    ]},
    {"smiles": "CCCCCCCCCCC(F)(F)c1ccc(-c2ccc(-c3c4c(c(-c5ccc(-c6ccc(C(F)(F)CCCCCCCCCC)cc6)s5)c5nsnc35)N=S=N4)s2)cc1", "note": "[BBT-(5)]", "values": [
      {"measurement": "solubility", "setting": "[1]; [4]", "result": "> 1000", "unit": "µg/mL"},
      {"measurement": "solubility", "setting": "[1]; [5]", "result": "> 1000", "unit": "µg/mL"}
    ]},
    {"smiles": "CC(F)(F)Oc1ccc(-c2ccc(-c3c4c(c(-c5ccc(-c6ccc(OC(C)(F)F)cc6)s5)c5nsnc35)N=S=N4)s2)cc1", "note": "[BBT-(6)]", "values": [
      {"measurement": "solubility", "setting": "[1]; [4]", "result": "< 1000", "unit": "µg/mL"},
      {"measurement": "solubility", "setting": "[1]; [5]", "result": "> 1000", "unit": "µg/mL"}
    ]},
    {"smiles": "FC(F)(F)Oc1ccc(-c2ccc(-c3c4c(c(-c5ccc(-c6ccc(OC(F)(F)F)cc6)s5)c5nsnc35)N=S=N4)s2)cc1", "note": "[BBT-(1)]", "values": [
      {"measurement": "solubility", "setting": "[1]; [4]", "result": "> 1000", "unit": "µg/mL"},
      {"measurement": "solubility", "setting": "[1]; [5]", "result": "> 1000", "unit": "µg/mL"},
      {"measurement": "Solubility in 1,2-dichlorobenzene", "setting": "[2]", "result": "completely dissolved"},
      {"measurement": "Solubility in mesitylene", "setting": "[3]", "result": "completely dissolved"}
    ]},
    {"smiles": "FC(F)(F)c1ccc(-c2ccc(-c3c4c(c(-c5ccc(-c6ccc(C(F)(F)F)cc6)s5)c5nsnc35)N=S=N4)s2)cc1", "note": "[BBT-(11), reference compound]", "values": [
      {"measurement": "solubility", "setting": "[1]; [4]", "result": "< 1000", "unit": "µg/mL"},
      {"measurement": "solubility", "setting": "[1]; [5]", "result": "< 1000", "unit": "µg/mL"},
      {"measurement": "Solubility in 1,2-dichlorobenzene", "setting": "[2]", "result": "not completely dissolved"},
      {"measurement": "Solubility in mesitylene", "setting": "[3]", "result": "not completely dissolved"}
    ]},
    {"smiles": "FC(F)(F)Oc1cccc(-c2ccc(-c3c4c(c(-c5ccc(-c6cccc(OC(F)(F)F)c6)s5)c5nsnc35)N=S=N4)s2)c1", "note": "[BBT-(2)]", "values": [
      {"measurement": "solubility", "setting": "[1]; [4]", "result": "> 1000", "unit": "µg/mL"},
      {"measurement": "solubility", "setting": "[1]; [5]", "result": "> 1000", "unit": "µg/mL"}
    ]},
    {"smiles": "COc1ccc(-c2ccc(-c3c4c(c(-c5ccc(-c6ccc(OC)cc6)s5)c5nsnc35)N=S=N4)s2)cc1", "note": "[BBT-(13), reference compound]", "values": [
      {"measurement": "solubility", "setting": "[1]; [4]", "result": "< 1000", "unit": "µg/mL"},
      {"measurement": "solubility", "setting": "[1]; [5]", "result": "> 1000", "unit": "µg/mL"}
    ]}
  ]
}
